Measurements published in ChEMBL document CHEMBL1201862, “PubChem BioAssay data set” (2004).
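Where inhibition never reached the appropriate level, the endpoint shown equals the highest concentration tested. Otherwise, values were interpolated linearly from a five-concentration, 48-hour dose response in 96-well plates. The concentration for 50% growth inhibition is given as GI50.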 Activity calls are given as the source filed them. Cut-off read from the data, not from the text of the source: active = GI50 up to about 1.1 µM and inactive = higher.

How the values were obtained:
Assay in all cases: inhibition of tumour cell growth, NCI panel, 48 h
[1] = tested on: HCT-15
[2] = tested on: M14
[3] = tested on: NCI-H226
[4] = tested on: HT-29
[5] = tested on: NCI-H522
[6] = tested on: NCI-H23
[7] = tested on: Malme-3M
[8] = tested on: RXF 393
[9] = tested on: NCI-H460
[10] = tested on: EKVX
[11] = tested on: RPMI-8226
[12] = tested on: SK-MEL-28
[13] = tested on: OVCAR-4
[14] = tested on: MCF7
[15] = tested on: BT-549
[16] = tested on: MDA-N
[17] = tested on: PC-3
[18] = tested on: MDA-MB-435
[19] = tested on: NCI/ADR-RES

| Compound | GI50 [1] [µM] | GI50 [2] | GI50 [3] | GI50 [4] | GI50 [5] | GI50 [6] | GI50 [7] | GI50 [8] | GI50 [9] | GI50 [10] | GI50 [11] | GI50 [12] | GI50 [13] | GI50 [14] | GI50 [15] | GI50 [16] | GI50 [17] | GI50 [18] | GI50 [19] |
| --- | --- | --- | --- | --- | --- | --- | --- | --- | --- | --- | --- | --- | --- | --- | --- | --- | --- | --- | --- |
| COc1ccc(NC(=O)CCc2cc(C(C)(C)C)[nH]n2)cc1 | > 100 | > 100 µM (inactive) | > 100 µM (inactive) | > 100 µM (inactive) | 74 µM (inactive) | > 100 µM (inactive) | > 100 µM (inactive) | > 100 µM (inactive) | > 100 µM (inactive) | > 100 µM (inactive) | > 100 µM (inactive) | > 100 µM (inactive) | – | – | – | – | – | – | – |
| O=C1[C@@H]2C(c3ccccc3[N+](=O)[O-])=NO[C@@H]2C(=O)N1c1ccc(Cc2ccc(N3C(=O)[C@H]4C(c5ccccc5[N+](=O)[O-])=NO[C@H]4C3=O)cc2)cc1 | > 100 | > 100 µM (inactive) | – | > 100 µM (inactive) | > 100 µM (inactive) | > 100 µM (inactive) | > 100 µM (inactive) | > 100 µM (inactive) | > 100 µM (inactive) | > 100 µM (inactive) | > 100 µM (inactive) | > 100 µM (inactive) | > 100 µM (inactive) | – | – | – | – | – | – |
| COc1ccc(-c2onc(-c3c(C)cc(C)cc3C)c2C2=NCCCN2)cc1 | 39.1 | 21.1 µM (inactive) | 36.4 µM (inactive) | 31.2 µM (inactive) | 14.3 µM (inactive) | > 100 µM (inactive) | 41.9 µM (inactive) | 47.3 µM (inactive) | 32.1 µM (inactive) | 96.8 µM (inactive) | 23.6 µM (inactive) | 36.4 µM (inactive) | 49.9 µM (inactive) | – | – | – | – | – | – |
| OC12c3ccccc3C1CCCCCC21OCCCO1 (stereo not given) | > 100 | > 100 µM (inactive) | > 100 µM (inactive) | > 100 µM (inactive) | > 100 µM (inactive) | > 100 µM (inactive) | > 100 µM (inactive) | > 100 µM (inactive) | > 100 µM (inactive) | – | > 100 µM (inactive) | > 100 µM (inactive) | > 100 µM (inactive) | – | – | – | – | – | – |
| O=C(/N=N/c1ccc([N+](=O)[O-])cc1)NNc1ccc([N+](=O)[O-])cc1 | 19.2 | 13.5 µM (inactive) | 19.5 µM (inactive) | 31.3 µM (inactive) | 17.7 µM (inactive) | 15.5 µM (inactive) | 19 µM (inactive) | – | 19.6 µM (inactive) | – | 14.3 µM (inactive) | 16.4 µM (inactive) | 18.1 µM (inactive) | 4.58 µM (inactive) | 15.5 µM (inactive) | 11.6 µM (inactive) | 9.62 µM (inactive) | 12.8 µM (inactive) | – |
| CC1=CC(=O)/C(=C/Nc2nc(-c3cccc([N+](=O)[O-])c3)cs2)C(=O)O1 | 23 | 64.1 µM (inactive) | > 100 µM (inactive) | 89.9 µM (inactive) | – | 60.5 µM (inactive) | – | – | > 100 µM (inactive) | 39.4 µM (inactive) | – | > 100 µM (inactive) | > 100 µM (inactive) | 41.6 µM (inactive) | 21.9 µM (inactive) | – | > 100 µM (inactive) | 75.2 µM (inactive) | 44.4 µM (inactive) |
| CCOc1ccc(NC(=O)CC2SC(Nc3ccc(C)cc3C)=NC2=O)cc1 (stereo not given) | > 100 | > 100 µM (inactive) | 84.3 µM (inactive) | > 100 µM (inactive) | 5.38 µM (inactive) | > 100 µM (inactive) | > 100 µM (inactive) | > 100 µM (inactive) | > 100 µM (inactive) | > 100 µM (inactive) | 29.9 µM (inactive) | > 100 µM (inactive) | 90.8 µM (inactive) | – | – | – | – | – | – |
| CCO/C=C1\N=C(c2ccccc2Br)OC1=O | > 100 | > 100 µM (inactive) | > 100 µM (inactive) | > 100 µM (inactive) | > 100 µM (inactive) | > 100 µM (inactive) | > 100 µM (inactive) | > 100 µM (inactive) | > 100 µM (inactive) | > 100 µM (inactive) | > 100 µM (inactive) | > 100 µM (inactive) | > 100 µM (inactive) | – | – | – | – | – | – |
| O=C(Nc1cc(Cl)c(Cl)cc1Cl)C(=O)C1C=CCS1(=O)=O (stereo not given) | > 100 | > 100 µM (inactive) | 87.3 µM (inactive) | > 100 µM (inactive) | > 100 µM (inactive) | > 100 µM (inactive) | > 100 µM (inactive) | > 100 µM (inactive) | > 100 µM (inactive) | > 100 µM (inactive) | > 100 µM (inactive) | > 100 µM (inactive) | > 100 µM (inactive) | – | – | – | – | – | – |
| Cn1c2c([N+](=O)[O-])cccc2c(=O)c2c(O)cc3c(c21)C=CC(C)(C)O3 | 20.7 | 86.7 µM (inactive) | – | 23.4 µM (inactive) | 11.2 µM (inactive) | 30.8 µM (inactive) | 40.2 µM (inactive) | 18.1 µM (inactive) | 36.6 µM (inactive) | 6.59 µM (inactive) | 18.4 µM (inactive) | 84.5 µM (inactive) | 20.8 µM (inactive) | – | – | – | – | – | – |
